Test results taken from patent US5807535A, “Metal complexes of hydroxyaryl containing aminocarboxylic acid chelating agents” (Australian Nuclear Science & Technology Organisation, priority 1992, dated 1998).
Where two headings read alike, the source gives them in different places.

Assay: Biodistribution of 99mTc complexes in rats
Assay type: in vivo, Australian Albino Wistar Rats
Settings: rat, rats; for tissue uptake at 0.5 min: 30 sec; for tissue uptake at 0.05 h: 3 min
Protocol: A typical method of radiolabelling of the chelator was achieved by dissolving the chelator in a basic solution of saline. The pH was then adjusted to approx. 6 with HCl. Excess stannous chloride was added to the resultant solution followed by one equivalent volume of sodium ^99m TcO4 (10-50 mCi/ml). Final concentration of the chelator was approx. 1 mg/ml. The efficacy of labelling was determined by ITLC-SG. For each product only one main radiochemical species was observed. Each complex was diluted to 15 μCi/100 μl with saline. […] (See FIGS. 1A and 1B).
Selected data from biodistribution results of technetium-99m complexes of No. 1, No. 2 and No 4 in the liver, kidney and blood at 3 minutes is tabulated below.

[1] = blood, read-out: biodistribution blood
[2] = bone, read-out: biodistribution bone
[3] = brain, read-out: biodistribution brain
[4] = eyes, read-out: biodistribution eyes
[5] = heart, read-out: biodistribution heart
[6] = kidneys, read-out: biodistribution kidneys
[7] = liver, read-out: biodistribution liver
[8] = lungs, read-out: biodistribution lungs
[9] = muscle, read-out: biodistribution muscle
[10] = pancreas, read-out: biodistribution pancreas
[11] = skin, read-out: biodistribution skin
[12] = spleen, read-out: biodistribution spleen
[13] = tail, read-out: biodistribution tail
[14] = thymus, read-out: biodistribution thymus
[15] = thyroid, read-out: biodistribution thyroid

O=C(O)CN(CCN(CC(=O)O)CC(=O)Nc1cc([N+](=O)[O-])ccc1O)CC(=O)Nc1cc([N+](=O)[O-])ccc1O [Compound 3]
tissue uptake at 0.5 min [1]: 2.1 %ID/g
tissue uptake at 1 min [1]: 1.83 %ID/g
tissue uptake at 0.05 h [1]: 1.37 %ID/g
tissue uptake at 5 min [1]: 1.17 %ID/g
tissue uptake at 10 min [1]: 0.86 %ID/g
tissue uptake at 0.5 min [2]: 0.3 %ID/g
tissue uptake at 1 min [2]: 0.29 %ID/g
tissue uptake at 0.05 h [2]: 0.3 %ID/g
tissue uptake at 5 min [2]: 0.29 %ID/g
tissue uptake at 10 min [2]: 0.22 %ID/g
tissue uptake at 0.5 min [3]: 0.18 %ID/g
tissue uptake at 1 min [3]: 0.14 %ID/g
tissue uptake at 0.05 h [3]: 0.09 %ID/g
tissue uptake at 5 min [3]: 0.08 %ID/g
tissue uptake at 10 min [3]: 0.05 %ID/g
tissue uptake at 0.5 min [4]: 0.2 %ID/g
tissue uptake at 1 min [4]: 0.23 %ID/g
tissue uptake at 0.05 h [4]: 0.23 %ID/g
tissue uptake at 5 min [4]: 0.17 %ID/g
tissue uptake at 10 min [4]: 0.18 %ID/g
tissue uptake at 0.5 min [5]: 0.78 %ID/g
tissue uptake at 1 min [5]: 0.65 %ID/g
tissue uptake at 0.05 h [5]: 0.55 %ID/g
tissue uptake at 5 min [5]: 0.45 %ID/g
tissue uptake at 10 min [5]: 0.34 %ID/g
tissue uptake at 0.5 min [6]: 3.92 %ID/g
tissue uptake at 1 min [6]: 4.63 %ID/g
tissue uptake at 0.05 h [6]: 4.27 %ID/g
tissue uptake at 5 min [6]: 3 %ID/g
tissue uptake at 10 min [6]: 2.1 %ID/g
tissue uptake at 0.5 min [7]: 1.43 %ID/g
tissue uptake at 1 min [7]: 1.61 %ID/g
tissue uptake at 0.05 h [7]: 1.61 %ID/g
tissue uptake at 5 min [7]: 1.24 %ID/g
tissue uptake at 10 min [7]: 0.92 %ID/g
tissue uptake at 0.5 min [8]: 1.24 %ID/g
tissue uptake at 1 min [8]: 1.04 %ID/g
tissue uptake at 0.05 h [8]: 0.87 %ID/g
tissue uptake at 5 min [8]: 0.72 %ID/g
tissue uptake at 10 min [8]: 0.57 %ID/g
tissue uptake at 0.5 min [9]: 0.26 %ID/g
tissue uptake at 1 min [9]: 0.24 %ID/g
tissue uptake at 0.05 h [9]: 0.23 %ID/g
tissue uptake at 5 min [9]: 0.21 %ID/g
tissue uptake at 10 min [9]: 0.22 %ID/g
tissue uptake at 0.5 min [10]: 0.47 %ID/g
tissue uptake at 1 min [10]: 0.41 %ID/g
tissue uptake at 0.05 h [10]: 0.38 %ID/g
tissue uptake at 5 min [10]: 0.42 %ID/g
tissue uptake at 10 min [10]: 0.21 %ID/g
tissue uptake at 0.5 min [11]: 0.49 %ID/g
tissue uptake at 1 min [11]: 0.43 %ID/g
tissue uptake at 0.05 h [11]: 0.58 %ID/g
tissue uptake at 5 min [11]: 0.64 %ID/g
tissue uptake at 10 min [11]: 0.63 %ID/g
tissue uptake at 0.5 min [12]: 0.49 %ID/g
tissue uptake at 1 min [12]: 0.42 %ID/g
tissue uptake at 0.05 h [12]: 0.29 %ID/g
tissue uptake at 5 min [12]: 0.23 %ID/g
tissue uptake at 10 min [12]: 0.17 %ID/g
tissue uptake at 0.5 min [13]: 0.85 %ID/g
tissue uptake at 1 min [13]: 2.43 %ID/g
tissue uptake at 0.05 h [13]: 0.63 %ID/g
tissue uptake at 5 min [13]: 0.84 %ID/g
tissue uptake at 10 min [13]: 0.84 %ID/g
tissue uptake at 0.5 min [14]: 0.38 %ID/g
tissue uptake at 1 min [14]: 0.34 %ID/g
tissue uptake at 0.05 h [14]: 0.32 %ID/g
tissue uptake at 5 min [14]: 0.25 %ID/g
tissue uptake at 10 min [14]: 0.2 %ID/g
tissue uptake at 0.5 min [15]: 1.11 %ID/g
tissue uptake at 1 min [15]: 1.14 %ID/g
tissue uptake at 0.05 h [15]: 0.92 %ID/g
tissue uptake at 5 min [15]: 0.7 %ID/g
tissue uptake at 10 min [15]: 0.63 %ID/g
